# Measurements: PMC6100512, “In-Vitro Activity of Silybin and Related Flavonolignans against Leishmania infantum and L. donovani” (Molecules : A Journal of Synthetic Chemistry and Natural …, 2018)
# How the values were obtained:
# Ld promastigotes = experiment: Multiplication of Ld promastigotes in vitro (CellTiter-Glo, 24 h); type: cell-based, L. donovani; conditions: Leishmania donovani, 120 µM, compared to untreated cultures, mean ± SD, read-out: Reduction (%) of multiplication, L. donovani promastigotes
# Method: (§1) Growth was estimated by the addition of CellTiter-Glo® (Promega, Madison, WI, USA) (1:1) in 96-well microtiter white plates (Costar, Corning). After 10 min incubation (light protected, room temperature), luminescence was determined with FLUOstar Omega (BMG Labtech) reader. Sensitivity of Ld was similarly performed with promastigotes exposed to 120 μM. Control cultures (medium, untreated promastigotes, promastigotes treated with 0.2 μM AmB) were included. Experiment was carried out in triplicate and results expressed as % of inhibition of untreated control. Approximate IC50 values of the flavonolignans showing the highest inhibitory activity against Li mid-log-phase promastigotes were determined using dose-response curves. […] The compound with the highest activity, DhiS-A, was assayed against Ld promastigotes using the latter dilution series and the same culture conditions as above. For comparative purposes, mid-log promastigotes of Li and Ld were exposed to established anti-Leishmania agents: AmB (0.0078 μ[…] and 1.0 μM); […]
# Li UCM9 promastigotes = experiment: Multiplication of Li promastigotes in vitro (CellTiter-Glo, 24 h); type: cell-based, Leishmania infantum; conditions: for inhibition of growth at 120 µM: compared to untreated cultures, mean ± SD, read-out: Reduction (%) of multiplication, L infantum promastigotes
# Method: as §1
# Li promastigotes = experiment: Drug combination with DhiS-A, Chou-Talalay method (CalcuSyn); type: cell-based, Leishmania infantum; conditions: for CI value of combination Dn + DhiS-A: constant ratio Dn:DhiS-A (AmB 0.01:15; Sb^III 1:1; PMM 5:1); for Dose Required of Dn in combination with DhiS-A: computer-simulated; for DRI of Dn in combination with DhiS-A: fold dose reduction vs single agent; for Type of interaction with DhiS-A: Li promastigotes, fixed ratios AmB 0.01:15, Sb^III 1:1, PMM 5:1 (Dn:DhiS-A)
# Method: Fixed-combination ratios of drugs were based on the IC50 values determined for the individual molecules. Mid-log-phase promastigotes of Li were exposed for 24 h at constant ratios of 0.01:15 (AmB:DhiS-A), 1:1 (Sb^III:DhiS-A) and 5:1 (PMM:DhiS-A). Dose–response curves of the combinations were analyzed with the Chou–Talalay method, based on the theorem of combination index (CI)-isobologram and CalcuSyn software. This method allows the evaluation of the type of interaction between two molecules according to mass action law. Results can be used to determine quantitatively the synergy (CI < 1), additive effect (CI = 1) or antagonism (CI > 1) of combinations. Moreover, the program allows the calculation of the drug reduction index (DRI): dose reduction in drug combinations to reach a given inhibition compared to the activity of the individual drugs.
molecule,measurement,setting,value
"COc1cc([C@H]2Oc3ccc([C@H]4Oc5cc(O)cc(O)c5C(=O)[C@@H]4O)cc3O[C@@H]2CO)ccc1O [Isosilybin A, isosilybin A]",inhibition of growth at 120 µM,Ld promastigotes,30.6 ± 5.85%
same,inhibition of growth at 120 µM,"Li UCM9 promastigotes; Leishmania infantum, 24 h",6.94 ± 6.43%
"NC[C@@H]1O[C@H](O[C@H]2[C@@H](O)[C@H](O[C@@H]3[C@@H](O)[C@H](N)C[C@H](N)[C@H]3O[C@H]3O[C@H](CO)[C@@H](O)[C@H](O)[C@H]3N)O[C@@H]2CO)[C@H](N)[C@@H](O)[C@@H]1O [PMM, paromomycin sulphate]",CI value of combination Dn + DhiS-A,Li promastigotes; ED50 (50% growth inhibition),1.98 (antagonism)
same,Dose Required of Dn in combination with DhiS-A,Li promastigotes; ED50,822 µM
same,DRI of Dn in combination with DhiS-A,Li promastigotes; ED50,39.54
same,CI value of combination Dn + DhiS-A,Li promastigotes; ED75 (75% growth inhibition),1.65 (antagonism)
same,Dose Required of Dn in combination with DhiS-A,Li promastigotes; ED75,1145 µM
same,DRI of Dn in combination with DhiS-A,Li promastigotes; ED75,182.9
same,CI value of combination Dn + DhiS-A,Li promastigotes; ED90 (90% growth inhibition),1.38 (moderate antagonism)
same,Dose Required of Dn in combination with DhiS-A,Li promastigotes; ED90,1594 µM
same,DRI of Dn in combination with DhiS-A,Li promastigotes; ED90,845.2
same,CI value of combination Dn + DhiS-A,Li promastigotes; ED95 (95% growth inhibition),1.23 (moderate antagonism)
same,Dose Required of Dn in combination with DhiS-A,Li promastigotes; ED95,1997 µM
same,DRI of Dn in combination with DhiS-A,Li promastigotes; ED95,2393
same,Type of interaction with DhiS-A,Li promastigotes,antagonists
"COc1cc([C@H]2Oc3cc([C@H]4Oc5cc(O)cc(O)c5C(=O)[C@@H]4O)ccc3O[C@@H]2CO)ccc1O [Silybin A, silybin A]",inhibition of growth at 120 µM,Ld promastigotes,14.2 ± 7.6%
same,inhibition of growth at 120 µM,"Li UCM9 promastigotes; Leishmania infantum, 24 h",-3.18 ± 9.09%
"COc1cc([C@@H]2Oc3cc([C@H]4Oc5cc(O)cc(O)c5C(=O)[C@@H]4O)ccc3O[C@H]2CO)ccc1O [Silybin B, silybin B]",inhibition of growth at 120 µM,Ld promastigotes,30.9 ± 5.02%
same,inhibition of growth at 120 µM,"Li UCM9 promastigotes; Leishmania infantum, 24 h",-3.82 ± 9.11%
"COc1cc([C@@H]2Oc3c(O)cc([C@H]4Oc5cc(O)cc(O)c5C(=O)[C@@H]4O)cc3[C@H]2CO)ccc1O [Silychristin A, silychristin A]",inhibition of growth at 120 µM,Ld promastigotes,19.2 ± 5.75%
same,inhibition of growth at 120 µM,"Li UCM9 promastigotes; Leishmania infantum, 24 h",27.1 ± 8.64%
same,Emax,"Li UCM9 promastigotes; Leishmania infantum, exploratory screening, 0.94 µM up to 120 µM, read-out: Maximal effect (inhibition of growth of control cultures) on Li promastigotes",< 50%
"COc1cc([C@@H]2[C@H]3CO[C@@]4(O)C(=O)[C@@H]2C=C([C@H]2Oc5cc(O)cc(O)c5C(=O)[C@@H]2O)[C@@H]34)ccc1O [Silydianin, silydianin]",inhibition of growth at 120 µM,Ld promastigotes,20.5 ± 3.08%
same,inhibition of growth at 120 µM,"Li UCM9 promastigotes; Leishmania infantum, 24 h",16.4 ± 8.63%
potassium tartrate of antimonium III [Sb^III],CI value of combination Dn + DhiS-A,Li promastigotes; ED50 (50% growth inhibition),1.89 (antagonism)
same,Dose Required of Dn in combination with DhiS-A,Li promastigotes; ED50,56 µM
same,DRI of Dn in combination with DhiS-A,Li promastigotes; ED50,0.82
same,CI value of combination Dn + DhiS-A,Li promastigotes; ED75 (75% growth inhibition),2.09 (antagonism)
same,Dose Required of Dn in combination with DhiS-A,Li promastigotes; ED75,141.12 µM
same,DRI of Dn in combination with DhiS-A,Li promastigotes; ED75,0.92
same,CI value of combination Dn + DhiS-A,Li promastigotes; ED90 (90% growth inhibition),2.50 (antagonism)
same,Dose Required of Dn in combination with DhiS-A,Li promastigotes; ED90,355.63 µM
same,DRI of Dn in combination with DhiS-A,Li promastigotes; ED90,1.04
same,CI value of combination Dn + DhiS-A,Li promastigotes; ED95 (95% growth inhibition),2.93 (antagonism)
same,Dose Required of Dn in combination with DhiS-A,Li promastigotes; ED95,666.84 µM
same,DRI of Dn in combination with DhiS-A,Li promastigotes; ED95,1.13
same,Type of interaction with DhiS-A,Li promastigotes,antagonists
same,IC50,"Li UCM9 promastigotes; approximate, dose-response curve, 24 h",~80.6 µM
